Measured values as given in patent US20250195513A1, “DEGRADATION OF IRAK4 BY CONJUGATION OF IRAK4 INHIBITORS WITH E3 LIGASE LIGAND AND METHODS OF USE” (BeiGene, Ltd., priority 2022, published 2025).

Key:
Format in all cases: cell-based
[1] = test system: TNF-α production in THP-1 cells; assay: TNF-α Production Assay in THP-1 Cells (LPS stimulated); conditions: Homo sapiens, THP-1, 24 h; for Emax: maximum inhibition, read-out: TNF-α (THP-1) 24 h IMax
Procedure: THP-1 cells maintained in RPMI 1640 medium (Thermo Scientific) supplemented with 10% FBS (Thermo Scientific), 100 units/mL penicillin and 0.1 mg/mL streptomycin (Thermo Scientific) were seeded into 96-well plates at the density of 0.2 million cells per well and then treated with compounds for 24 h. Lipopolysaccharide was subsequently added at the final concentration of 1 μg/mL for 24 h. Culture supernatant was collected for measurement of TNF-α concentration by a TR-FRET-based method (Degorce, François, et al. Current chemical genomics. 2009, 3: 22) as described by the manufacturer manual (Cisbio). FRET signals were measured using a PHERAstar FSX reader (BMG Labtech).

IRAK4 [2] = target: T1, IRAK4 (Homo sapiens, UniProt Q9NWZ3); assay: IRAK4 Degradation Assay (Karpas299, HTRF/TR-FRET); conditions: Karpas-299 cells; for Dmax: maximum percentage of degradation
T1 construct: endogenous in cells; host or cells: Karpas299
T1 sequence (Q9NWZ3 1-460): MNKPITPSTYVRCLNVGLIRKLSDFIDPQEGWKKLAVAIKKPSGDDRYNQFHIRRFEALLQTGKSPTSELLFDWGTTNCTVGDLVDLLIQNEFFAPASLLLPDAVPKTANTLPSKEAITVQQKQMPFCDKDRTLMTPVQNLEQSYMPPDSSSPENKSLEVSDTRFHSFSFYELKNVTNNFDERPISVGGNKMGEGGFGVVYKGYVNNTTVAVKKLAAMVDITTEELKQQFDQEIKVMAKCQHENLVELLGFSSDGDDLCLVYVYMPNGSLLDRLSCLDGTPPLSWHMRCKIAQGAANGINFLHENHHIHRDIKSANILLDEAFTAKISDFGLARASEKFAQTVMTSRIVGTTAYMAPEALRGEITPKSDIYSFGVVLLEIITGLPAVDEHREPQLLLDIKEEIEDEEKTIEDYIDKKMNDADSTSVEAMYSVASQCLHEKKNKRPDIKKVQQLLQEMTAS
Procedure, shortened: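 Compound potency as DC50 (IC50) came from four-parameter fits of percent IRAK4 degradation. IRAK4 was measured by HTRF (665/620 nm) in lysates of Karpas299 cells seeded at 0.2 million per well. Cells had been treated with compound dilutions for 5 or 24 h.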

IRAK4 [3] = target: T1, IRAK4; assay: IRAK4 Degradation Assay with Human Serum (Karpas299, HTRF/TR-FRET); conditions: Karpas-299 in human serum, 24 hrs treatment; for DC50: read-out: IRAK4 degradtion with human serum assay DC50; for Dmax: read-out: IRAK4 degradtion with human serum assay Dmax (%)
Procedure, shortened: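 Remaining IRAK4 measured by TR-FRET immunoassay on lysates of Karpas299 cells exposed 24 h to compound dilution series in human serum AB. DC50 derived from a Hill-slope fit of % degradation versus concentration.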

[4] = 24 h treatment, read-out: IRAK4 in Karpas-299 (24 h) Dmax (%)
[5] = 24 h treatment, read-out: IRAK4 in Karpas-299 (24 h) DC50
[6] = 5 h treatment, read-out: IRAK4 in Karpas-299 (5 h) Dmax (%)
[7] = 5 h treatment, read-out: IRAK4 in Karpas-299 (5 h) DC50

IC50 [1] [nM]	Dmax (IRAK4 [2]; [4]) [%]	DC50 (IRAK4 [2]; [5]) [nM]	DC50 (IRAK4 [3]) [nM]	Dmax (IRAK4 [3]) [%]	Dmax (IRAK4 [2]; [6]) [%]	DC50 (IRAK4 [2]; [7]) [nM]	Compound	Emax [1] [%]
122	95	2.5	20	99	–	–	CC(C)(O)c1cc2nn(C3CCN([C@H]4CCN(CCc5cc(F)c([C@H]6CCC(=O)NC6=O)c(F)c5)CC4(F)F)CC3)cc2cc1NC(=O)c1ccc2cc(C#N)cnn12 [Example 339, 3-cyano-N-(2-((S)-1′-(4-((R)-2,6-dioxopiperidin-3-yl)-3,5-difluorophenethyl)-3′,3′-difluoro-[1,4′-bipiperidin]-4-yl)-6-(2-hydroxypropan-2-yl)-2H-indazol-5-yl)pyrrolo[1,2-b]pyridazine-7-carboxamide]	67
29	99	0.9	9.2	101	–	–	COC[C@@H]1CN([C@H]2CC[C@H](n3cc4cc(NC(=O)c5ccc6cc(C#N)cnn56)c(C(C)(C)O)cc4n3)CC2)CCN1C(=O)C1CN(c2cc(F)c([C@H]3CCC(=O)NC3=O)c(F)c2)C1 [Example 186, 3-cyano-N-(2-((1S,4r)-4-((S)-4-(1-(4-((R)-2,6-dioxopiperidin-3-yl)-3,5-difluorophenyl)azetidine-3-carbonyl)-3-(methoxymethyl)piperazin-1-yl)cyclohexyl)-6-(2-hydroxypropan-2-yl)-2H-indazol-5-yl)pyrrolo[1,2-b]pyridazine-7-carboxamide]	89
69	98	1.8	–	–	99	17	[2H]C([2H])([2H])Oc1cc2nn([C@H]3CC[C@H](N4CCN(C(=O)C5CN(c6cc(F)c(N7CCC(=O)NC7=O)c(F)c6)C5)CC4)CC3)cc2cc1NC(=O)c1cccc(C(F)(F)F)n1 [Example 173, N-(2-((1r,4r)-4-(4-(1-(4-(2,4-dioxotetrahydropyrimidin-1(2H)-yl)-3,5-difluorophenyl)azetidine-3-carbonyl)piperazin-1-yl)cyclohexyl)-6-(methoxy-d3)-2H-indazol-5-yl)-6-(trifluoromethyl)picolinamide]	79
101	99	3.1	–	–	81	33	COc1cc2nn([C@H]3CC[C@H](CN4CCN(C(=O)[C@@H]5CCN(c6ccc(N7CCC(=O)NC7=O)cc6)C5)CC4)CC3)cc2cc1NC(=O)c1cccn(C2CC2)c1=O [Example 33, 1-cyclopropyl-N-(2-((1R,4r)-4-((4-((R)-1-(4-(2,4-dioxotetrahydropyrimidin-1(2H)-yl)phenyl)pyrrolidine-3-carbonyl)piperazin-1-yl)methyl)cyclohexyl)-6-methoxy-2H-indazol-5-yl)-2-oxo-1,2-dihydropyridine-3-carboxamide]	53
20	97	0.4	5.8	102	–	–	CC(C)(O)c1cc2nn([C@H]3CC[C@H](N4CCN(C(=O)CNc5cc(F)c([C@H]6CCC(=O)NC6=O)c(F)c5)CC4)CC3)cc2cc1NC(=O)c1ccc2cc(C#N)cnn12 [Example 193, 3-cyano-N-(2-((1R,4r)-4-(4-((4-((R)-2,6-dioxopiperidin-3-yl)-3,5-difluorophenyl)glycyl)piperazin-1-yl)cyclohexyl)-6-(2-hydroxypropan-2-yl)-2H-indazol-5-yl)pyrrolo[1,2-b]pyridazine-7-carboxamide]	58
11	99	0.7	12	96	97	3.1	COC[C@H]1CN([C@H]2CC[C@H](n3cc4cc(NC(=O)c5ccc6cc(C#N)cnn56)c(C(C)(C)O)cc4n3)CC2)CCN1CC1CN(c2cc(F)c([C@H]3CCC(=O)NC3=O)c(F)c2)C1 [Example 367, 3-cyano-N-(2-((1R,4r)-4-((R)-4-((1-(4-((R)-2,6-dioxopiperidin-3-yl)-3,5-difluorophenyl)azetidin-3-yl)methyl)-3-(methoxymethyl)piperazin-1-yl)cyclohexyl)-6-(2-hydroxypropan-2-yl)-2H-indazol-5-yl)pyrrolo[1,2-b]pyridazine-7-carboxamide]	96
42	100	0.7	3.2	102	–	–	C[C@@H]1CN(C2CCN(c3cc(F)c([C@H]4CCC(=O)NC4=O)c(F)c3)CC2)CCN1[C@H]1CC[C@H](n2cc3cc(NC(=O)c4ccc5cc(C#N)cnn45)c(C(C)(C)O)cc3n2)CC1 [Example 301, 3-cyano-N-(2-((1R,4r)-4-((R)-4-(1-(4-((R)-2,6-dioxopiperidin-3-yl)-3,5-difluorophenyl)piperidin-4-yl)-2-methylpiperazin-1-yl)cyclohexyl)-6-(2-hydroxypropan-2-yl)-2H-indazol-5-yl)pyrrolo[1,2-b]pyridazine-7-carboxamide]	96
30	98	1.1	6.2	96	93	1.6	CC(C)(O)c1cc2nn([C@H]3CC[C@H](N4CCN(CCNc5cc(F)c([C@H]6CCC(=O)NC6=O)c(F)c5)CC4)CC3)cc2cc1NC(=O)c1ccc2cc(C#N)cnn12 [Example 194, 3-cyano-N-(2-((1R,4r)-4-(4-(2-((4-((R)-2,6-dioxopiperidin-3-yl)-3,5-difluorophenyl)amino)ethyl)piperazin-1-yl)cyclohexyl)-6-(2-hydroxypropan-2-yl)-2H-indazol-5-yl)pyrrolo[1,2-b]pyridazine-7-carboxamide]	53
19	98	0.8	6.3	101	–	–	COc1cc(N2CC(C(=O)N3CCN([C@H]4CC[C@H](n5cc6cc(NC(=O)c7ccc8cc(C#N)cnn78)c(C(C)(C)O)cc6n5)CC4)CC3)C2)ccc1[C@H]1CCC(=O)NC1=O [Example 259]	90
6.7	96	0.8	11	99	–	–	CC(C)(O)c1cc2nn([C@H]3C[C@H](N4CCN(C(=O)C5CN(c6cc(F)c([C@H]7CCC(=O)NC7=O)c(F)c6)C5)CC4)C3)cc2cc1NC(=O)c1ccc2cc(C#N)cnn12 [Example 201, 3-cyano-N-(2-((1R,3r)-3-(4-(1-(4-((R)-2,6-dioxopiperidin-3-yl)-3,5-difluorophenyl)azetidine-3-carbonyl)piperazin-1-yl)cyclobutyl)-6-(2-hydroxypropan-2-yl)-2H-indazol-5-yl)pyrrolo[1,2-b]pyridazine-7-carboxamide]	80
53	96	1.3	–	–	–	–	CC(C)(O)c1cc2nn([C@H]3CC[C@H](N4CCN(C(=O)C5CN(c6cc(F)c(N7CCC(=O)NC7=O)c(F)c6)C5)CC4)CC3)cc2cc1NC(=O)c1cccc(C(F)(F)F)n1 [Example 114, N-(2-((1r,4r)-4-(4-(1-(4-(2,4-dioxotetrahydropyrimidin-1(2H)-yl)-3,5-difluorophenyl)azetidine-3-carbonyl)piperazin-1-yl)cyclohexyl)-6-(2-hydroxypropan-2-yl)-2H-indazol-5-yl)-6-(trifluoromethyl)picolinamide]	78
120	97	1.6	–	–	96	12	COc1cc2nn([C@H]3CC[C@H](N4CCN(C(=O)C5CN(c6cc(F)c(N7CCC(=O)NC7=O)c(F)c6)C5)CC4)CC3)cc2cc1NC(=O)c1cccc(C(F)(F)F)n1 [Example 176, N-(2-((1r,4r)-4-(4-(1-(4-(2,4-dioxotetrahydropyrimidin-1(2H)-yl)-3,5-difluorophenyl)azetidine-3-carbonyl)piperazin-1-yl)cyclohexyl)-6-methoxy-2H-indazol-5-yl)-6-(trifluoromethyl)picolinamide]	78
